The supplement of paper PMC10307832

Key:
Assay in all cases: relative viability (nuclei count vs DMSO), 5 days (fraction); higher = more cells survive
Selisistat + Crizotinib = compound: C1CC(C2=C(C1)C3=C(N2)C=CC(=C3)Cl)C(=O)N [Selisistat] + C[C@@H](Oc1cc(-c2cnn(C3CCNCC3)c2)cnc1N)c1c(Cl)ccc(F)c1Cl [Crizotinib] (partner 1 µM)
In short: (§1)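 Five library-drug doses in √10 steps were combined with a fixed anchor-drug dose, or a single drug was given alone, by pin tool to lung cancer cell lines in 1536-well plates the day after seeding. Nuclei were stained and counted after 5 days. Relative viability is the nuclei count in treated wells over that in vehicle wells, taken as the median of duplicate plates.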

Serdemetan + Palbociclib = compound: c1ccc2c(CCNc3ccc(Nc4ccncc4)cc3)c[nH]c2c1 [Serdemetan] + CC(=O)c1c(C)c2cnc(Nc3ccc(N4CCNCC4)cn3)nc2n(C2CCCC2)c1=O [Palbociclib] (partner 0.5 µM)
In short: as §1

Selisistat + Linsitinib = compound: C1CC(C2=C(C1)C3=C(N2)C=CC(=C3)Cl)C(=O)N [Selisistat] + C[C@]1(O)C[C@@H](c2nc(-c3ccc4ccc(-c5ccccc5)nc4c3)c3c(N)nccn32)C1 [Linsitinib] (partner 1 µM)
In short: as §1

Serdemetan + Decitabine = compound: c1ccc2c(CCNc3ccc(Nc4ccncc4)cc3)c[nH]c2c1 [Serdemetan] + Nc1ncn([C@H]2C[C@H](O)[C@@H](CO)O2)c(=O)n1 [Decitabine] (partner 2 µM)
In short: as §1

Row | Cell Line | relative viability (Selisistat + Crizotinib; first compound 0.4 µM) | relative viability (Selisistat + Crizotinib; first compound 1.265 µM) | relative viability (Selisistat + Crizotinib; first compound 4 µM) | relative viability (Selisistat + Crizotinib; first compound 12.65 µM) | relative viability (Selisistat + Crizotinib; first compound 40 µM) | relative viability (Serdemetan + Palbociclib; first compound 0.04 µM) | relative viability (Serdemetan + Palbociclib; first compound 0.1265 µM) | relative viability (Serdemetan + Palbociclib; first compound 0.4 µM) | relative viability (Serdemetan + Palbociclib; first compound 1.265 µM) | relative viability (Serdemetan + Palbociclib; first compound 4 µM) | relative viability (Selisistat + Linsitinib; first compound 0.4 µM) | relative viability (Selisistat + Linsitinib; first compound 1.265 µM) | relative viability (Selisistat + Linsitinib; first compound 4 µM) | relative viability (Selisistat + Linsitinib; first compound 12.65 µM) | relative viability (Selisistat + Linsitinib; first compound 40 µM) | relative viability (Serdemetan + Decitabine; first compound 0.04 µM) | relative viability (Serdemetan + Decitabine; first compound 0.1265 µM) | relative viability (Serdemetan + Decitabine; first compound 0.4 µM) | relative viability (Serdemetan + Decitabine; first compound 1.265 µM) | relative viability (Serdemetan + Decitabine; first compound 4 µM)
1 | NCI-H2087 | 0.847 | 0.77 | 1.13 | 0.763 | 0.784 | 0.28 | 0.255 | 0.236 | 0.147 | 0.215 | 0.953 | 0.957 | 0.885 | 0.737 | 0.818 | 0.285 | 0.23 | 0.251 | 0.145 | 0.135
2 | NCI-H2126 | 1.1 | 0.976 | 0.992 | 1.01 | 1.12 | 0.356 | 0.379 | 0.349 | 0.329 | 0.354 | 0.807 | 0.663 | 0.686 | 0.758 | 0.804 | 0.623 | 0.583 | 0.612 | 0.451 | 0.519
3 | NCI-H2347 | 0.814 | 0.946 | 0.566 | 0.813 | 0.84 | 0.448 | 0.367 | 0.403 | 0.358 | 0.406 | 1.05 | 0.999 | 0.733 | 0.973 | 0.979 | 0.638 | 0.615 | 0.583 | 0.474 | 0.527
4 | NCI-H2405 | 0.825 | 0.807 | 0.787 | 0.833 | 0.832 | 0.479 | 0.515 | 0.549 | 0.466 | 0.52 | 0.975 |  |  | 0.948 | 0.885 | 0.707 | 0.766 | 0.756 | 0.674 | 0.625
5 | NCI-H3122 | 0.315 | 0.235 | 0.218 | 0.296 | 0.266 | 0.192 | 0.227 | 0.224 | 0.205 | 0.214 | 1.03 | 0.953 | 0.872 | 1.06 | 0.994 | 0.451 | 0.444 | 0.469 | 0.322 | 0.368
6 | PC-3 [JPC-3] | 1.02 | 1.01 | 0.936 | 1.01 | 1.07 | 0.562 | 0.492 | 0.528 | 0.467 | 0.519 | 1.01 | 0.968 | 0.954 | 1 | 0.987 | 0.901 | 0.844 | 0.854 | 0.847 | 0.742
7 | PC-14 | 0.834 | 0.877 | 0.991 | 0.919 | 0.936 | 0.546 | 0.546 |  | 0.467 | 0.346 | 0.951 | 1.05 | 0.963 | 0.946 | 0.951 | 0.186 | 0.202 |  | 0.125 | 0.138
8 | RERF-LC-KJ | 0.826 | 0.879 | 0.835 | 0.771 | 0.716 | 1.06 | 0.962 | 0.975 | 1.04 | 0.824 | 0.969 | 0.878 | 0.937 | 0.88 | 0.775 | 0.785 | 0.636 | 0.722 | 0.489 | 0.605
9 | SK-LU-1 | 1.02 | 0.987 | 1.1 | 1.01 | 1.09 | 0.37 | 0.393 | 0.365 | 0.319 | 0.346 | 1.18 | 1.28 | 1.35 | 1.1 | 1.04 | 0.581 | 0.58 | 0.691 | 0.393 | 0.593
10 | SK-MES-1 | 1.12 | 0.993 | 1.05 | 0.875 | 0.959 | 0.271 | 0.309 | 0.285 | 0.302 | 0.325 | 1.11 | 1.04 | 0.955 | 1.05 | 1.01 | 0.327 | 0.368 | 0.397 | 0.33 | 0.281
11 | SW 1573 | 0.841 | 0.791 | 0.8 | 0.922 | 0.751 | 0.446 | 0.362 | 0.444 | 0.343 | 0.234 | 0.859 | 0.823 | 0.747 | 0.904 | 0.84 | 0.484 | 0.522 | 0.427 | 0.249 | 0.219
